By melting point is commonly meant the temperature of the solid-liquid transition. In general, ED50 refers to the dose at which the effect has come halfway, by size or by number of responders.

Where two headings read alike, the source gives them in different places.

Data set [1] deals with Staphylococcus aureus or Streptococcus species. The data set is described as follows: Murine Assay: in vivo antimicrobial activity, survival of mice infected intraperitoneally with bacteria. The note with it: female mice, treatment 1 h and 5 h after infection, oral intubation or subcutaneous, survival over six days, probit analysis of mortality ratios. As to the method:
Antimicrobial activity was tested in vivo using the Murine Assay procedure. Groups of female mice (six mice of 18-20 grams each) were injected intraperitoneally with bacteria which were thawed just prior to use and suspended in brain heart infusion with 4% brewers yeast (Staphylococcus aureus) or brain heart infusion (Streptococcus species). Antibiotic treatment at six dose levels per drug was administered one hour and five hours after infection by either oral intubation or subcutaneous routes. Survival was observed daily for six days. ED50 values based on mortality ratios were calculated using probit analysis. The subject compounds are compared against well-known antimicrobials vancomycin and U-100592 as controls. See “Upjohn Oxazolidinone Antibacterial Agent”, posters presented at the 35th Interscience Conference on Antimicrobial Agents and Chemotherapy.

`CC(=O)NC[C@H]1CN(c2ccc(C3=CCCCO3)c(F)c2)C(=O)O1` [Example 80, (S)-N-[[3-[3-Fluoro-4-(3,4-dihydro-2H-pyran-6-yl)phenyl]-2-oxo-5-oxazolidinyl]methyl]acetamide] gave a melting point of 161 to 163 °C.

Take `CC(=O)NC[C@H]1CN(c2ccc(C3=CC[S+]([O-])C3)c(F)c2)C(=O)O1` (stereo partly drawn) [68(a), (5S)-N-[[3-[3-Fluoro-4-(2,5-dihydro-1-oxido-3-thienyl)-phenyl]-2-oxo-5-oxazolidinyl]methyl]acetamide]: the median effective dose (ED50) in data set [1] (Table 2, read-out: ED50) turned out to be 3.5 mg/kg.

In the case of `CC(=O)NC[C@H]1CN(c2ccc(C3=CCSCC3)cc2)C(=O)O1` [Example 54, (S)-(−)-N-[[3-[4-(3,6-Dihydro-2H-thiopyran-4-yl)phenyl]-2-oxo-5-oxazolidinyl]methyl]acetamide], the ED50 in data set [1] (Table 2, read-out: ED50) is 6.6 mg/kg.

For the compound `CC(=O)NC[C@H]1CN(c2ccc(C3=CCCN(C(=O)CO)CC3)c(F)c2)C(=O)O1` [Example 78, (S)-(−)-N-[[3-[4-[1-(Hydroxyacetyl)-2,3,6,7-tetrahydro-1H-azepin-4-yl]-3-fluorophenyl]-2-oxo-5-oxazolidinyl]methyl]acetamide], the ED50 in data set [1] (Table 2, read-out: ED50) is 6 mg/kg.

In the case of `CC(=O)NC[C@H]1CN(c2ccc(C3CCN(CCF)CC3)c(F)c2)C(=O)O1` [Example 28, (S)-(−)-N-[[3-[4-[1-(2-Fluoroethyl)-4-piperidinyl]-3-fluorophenyl]-2-oxo-5-oxazolidinyl]methyl]acetamide], the ED50 in data set [1] (Table 1, read-out: ED50) was determined as 15.3 mg/kg.

With `CC(=O)NC[C@H]1CN(c2ccc(C3=CCSCC3)c(F)c2)C(=O)O1` [Example 49, (S)-(−)-N-[[3-[4-(3,6-Dihydro-2H-thiopyran-4-yl)-3-fluoropheny]-2-oxo-5-oxazolidinyl]methyl]acetamide], the “ED50” value in data set [1] (Table 2) stood at 2.40 mg/kg.

For the origin of these results see patent US6358942B1, “Phenyloxazolidinones having a c-c bond 4-8 membered heterocyclic rings” (Pharmacia & Upjohn Company, priority 1995, dated 2002).
